Structures can show the parent of a compound that is named as a salt. One block for each molecule: values may come before it.
Columns and labels:
[1] = NO release triggered by constant flow of humid nitrogen gas (11% RH), chemiluminescence nitric oxide analyser; format: physicochemical; conditions: humid nitrogen 11% RH; for total nitric oxide released: in 19 hr
From the text: The release of NO from the sample was first triggered by passing a constant flow of humid nitrogen gas (11% RH) over it. The amount of NO released over time was detected using a Sievers NOA 280i chemiluminescence nitric oxide analyser until the emission of NO reached a level lower than 20 ppb.

[2] = NO release triggered by UV light (300-400 nm), chemiluminescence analysis
Method: After the NO release was completed the sample was kept on the bench at room temperature, exposed to air and humidity for over 48 hr.
The release of NO over time was recorded using the same analyser described above.

[3] = Gravimetric NO adsorption/desorption isotherms at 298K; format: physicochemical
Method: The nitric oxide adsorption/desorption profiles for two further chlorhexidine diacetate samples (25 mg) were collected using a bespoke gravimetric adsorption system. Each sample was exposed to high vacuum at a pressure of 1×10^−4 mbar overnight until no further mass loss was observed. The samples were cooled to 298K using a water bath (temperature accuracy of 0.02K).
For one sample, shown in the outer plot of FIGS. 2A-2B, NO was introduced in increasing increments. After each dose of NO, the mass of the sample was allowed to stabilise (indicating completion of adsorption) before the next addition was made. This process was continued until the introduced pressure of NO was equal to atmospheric pressure. The second sample was exposed to one atmosphere of NO in a single step, and its mass allowed to equilibrate. Data is shown in the inner plot of FIGS. 2A-2B. The desorption profiles of both samples, shown in FIGS. 2A-2B, were measured by reducing the pressure in increments to a final value of 2×10^−2 mbar.

[4] = NO release from NO-loaded sample submersed in deionized water, chemiluminescence analysis; format: physicochemical
Method: The NO-loaded sample was submersed under 5 ml of deionized water in a sealed chamber connected to an NO analyser. A constant flow of nitrogen was bubbled through the suspension while measuring the concentration of NO present in the chamber atmosphere.
The release of NO from the sample triggered by the water was measured in ppm and ppb over time until the level of NO dropped below 20 ppb. The initial burst release of NO reached 40 ppm. The sample released up to 0.035 mmol/g of nitric oxide in 7 hrs (FIG. 5A).

- duration of initial burst release of NO on humidity [1]: a couple of minutes
- UV-triggered burst of NO (peak) ([2]; after 2 days on bench in humid air): up to 150 ppb
- NO level to which UV-triggered burst dropped ([2]; over 1 hr, after 2 days in humid air): 75 ppb
SMILES: N=C(NCCCCCCNC(=N)NC(=N)Nc1ccc(Cl)cc1)NC(=N)Nc1ccc(Cl)cc1 [chlorhexidine dihydrochloride]

- maximum NO adsorbed ([3]; NO pressure up to atmospheric, gravimetric): ~0.9 mmole of NO per gram
- level of stored NO after reapplication of vacuum ([3]; desorption to 2x10^-2 mbar, both samples): ~0.4 mmole per gram
- initial burst of release of NO (peak) [1]: 512 PPM
- total NO release ([1]; in 18 hrs): 0.03 mmol/g
- total nitric oxide released [1]: up to 0.042 mmol/g
- initial burst release of NO (peak) ([4]; 100 mg under 5 ml deionized water, nitrogen bubbled): 40 ppm
- total nitric oxide released ([4]; in water, in 7 hrs): up to 0.035 mmol/g
- UV-triggered immediate burst of NO release ([2]; burst from 30 ppb, after over 48 hr on bench in air and humidity): 105 ppb
- maximum NO on continuous UV exposure ([2]; continuous exposure about 5 mins, after over 48 hr storage in air): around 120 ppb
- NO release level sustained under continuous UV exposure ([2]; for more than 4 hrs): over 70 ppb
- maximum NO on continuous UV exposure ([2]; sample in water, immediately after water-triggered release, about 10 minutes): around 1000 ppb
SMILES: N=C(NCCCCCCNC(=N)NC(=N)Nc1ccc(Cl)cc1)NC(=N)Nc1ccc(Cl)cc1 [chlorhexidine diacetate]
- maximum NO adsorbed, molecules of NO per molecule of chlorhexidine ([3]; NO pressure up to atmospheric): 0.55 molecules of NO per molecule of chlorhexidine
- level of stored NO after reapplication of vacuum, molecules per molecule of chlorhexidine ([3]; desorption to 2x10^-2 mbar): circa 0.25 molecules per molecule of chlorhexidine

- initial burst of release of NO (peak) [1]: 512 ppm
- total nitric oxide released [1]: up to 0.042 mmol/g
SMILES: NS(=O)(=O)c1cc(C(=O)O)c(NCc2ccco2)cc1Cl [furosemide]

- duration of initial burst release of NO on humidity [1]: a couple of minutes
SMILES: O=C(O)c1cn(C2CC2)c2cc(N3CCNCC3)c(F)cc2c1=O [ciprofloxacin]

From patent US11344571B2, “NO containing compositions” (University Court of the University of St. Andrews, priority 2015, dated 2022)
